Measurements: EPA's ToxRefDB 2

Columns and labels:
rat [1] = details: Sub-acute repeat dose toxicity; sprague dawley; Injection; Subcutaneous; dose end: 5 day; group: systemic; systemic / in life observation / clinical signs / erythema + systemic / in life observation / clinical signs / scabbing + systemic / in life…
rabbit = details: Sub-acute dermal toxicity, new zealand white, Topical, dose end: 3 week, group: systemic, systemic / pathology gross / lymph node / enlarged + systemic / pathology gross / skin / lesion(s) (nos) + systemic / pathology microscopic…
rat [2] = details: Subchronic oral toxicity in rodents, sprague dawley, Gavage/Intubation, dose end: 90 day, group: systemic
mouse [3] = details: Subchronic oral toxicity in rodents, b6c3f1, Gavage/Intubation, dose end: 13 week, group: systemic
rat [4] = details: Subchronic oral toxicity in rodents, fischer, Gavage/Intubation, dose end: 13 week, group: systemic
rat [5] = details: Subchronic oral toxicity in rodents, fischer, Gavage/Intubation, dose end: 13 week, group: systemic; remark: listed apart in the source
rat [6] = details: Combined chronic toxicity/carcinogenicity, fischer, Oral, Gavage/Intubation, dose end: 2 year, group: systemic
mouse [7] = details: Combined chronic toxicity/carcinogenicity; b6c3f1; Oral; Gavage/Intubation; dose end: 2 year; group: systemic; systemic / pathology microscopic / liver / cytomegaly + systemic / pathology microscopic / liver / hyperplasia + systemic / pathology …
mouse [8] = details: Subchronic oral toxicity in rodents, b6c3f1, Gavage/Intubation, dose end: 13 week, group: systemic; remark: listed apart in the source
rat [9] = details: Developmental neurotoxicity study; sprague dawley; Oral; Feed; dose end: 90 PND; group: cannot be grouped; reproductive / offspring survival early / dead fetuses / dead fetuses + systemic / in life observation / body weight / offspring (pup) …
rat [10] = details: Subchronic oral toxicity in rodents, fischer, Water, dose end: 14 week, group: systemic
rat [11] = details: Subchronic oral toxicity in rodents, fischer, Water, dose end: 6 week, group: systemic
rat [12] = details: Carcinogenicity; fischer; Oral; Water; dose end: 104 week; group: systemic; systemic / in life observation / body weight / body weight
rat [13] = details: Chronic toxicity; fischer; Oral; Feed; dose end: 115 week; group: systemic; systemic / hematology / erythrocyte (rbc) count differential / erythrocyte (rbc) + systemic / hematology / hematocrit (hct) / hematocrit (…
mouse [14] = details: Carcinogenicity, b6c3f1, Oral, Water, dose end: 105 week, group: systemic
rat [15] = details: Carcinogenicity, fischer, Oral, Water, dose end: 105 week, group: systemic
mouse [16] = details: Subchronic oral toxicity in rodents, b6c3f1, Water, dose end: 14 week
[17] = systemic / clinical chemistry / [other] / [other] + systemic / clinical chemistry / chloride / chloride + systemic / clinical chemistry / …
[18] = systemic / pathology gross / thymus / discolored
[19] = systemic / hematology / anemia / anemia - normocytic + systemic / hematology / erythrocyte (rbc) count differential / erythrocyte (rbc) + …
[20] = systemic / hematology / methemoglobin / methemoglobin
[21] = systemic / hematology / anemia / anemia - macrocytic + systemic / hematology / erythrocyte (rbc) count differential / erythrocyte (rbc) + …
[22] = systemic / in life observation / body weight / body weight + systemic / in life observation / clinical signs / labored respiration + …
[23] = systemic / in life observation / body weight / body weight + systemic / organ weight / kidney / absolute + systemic / organ weight / kidney…
[24] = systemic / pathology microscopic / kidney / pigmentation + systemic / pathology microscopic / nose / pigmentation
[25] = systemic / in life observation / body weight / body weight gain + systemic / in life observation / clinical signs / prostration + systemic…
[26] = systemic / in life observation / body weight / body weight gain + systemic / organ weight / liver / absolute + systemic / organ weight / …
[27] = systemic / hematology / methemoglobin / methemoglobin + systemic / clinical chemistry / urea nitrogen / urea nitrogen
[28] = systemic / hematology / methemoglobin / methemoglobin + systemic / in life observation / body weight / body weight gain + systemic / in life…
[29] = systemic / in life observation / body weight / body weight + systemic / pathology microscopic / stomach / hyperplasia
[30] = systemic / in life observation / water consumption / water consumption
[31] = group: maternal, reproductive / reproductive performance / estrous cycle / length
[32] = group: systemic, systemic / in life observation / body weight / body weight + systemic / in life observation / body weight / body weight gain + systemic / …

## COCc1nnc(-c2ccc[n+]([O-])c2)n1-c1c(Cl)c(Cl)cc2[nH]c(=O)c(=O)[nH]c12
Rat [1]
  LEL: 20 mg/kg/day
  LOAEL: > 20 mg/kg/day
  NEL: < 20 mg/kg/day
  NOAEL: ≥ 20 mg/kg/day

## Cc1ccc(O)c(C)c1 [2,4-Dimethylphenol]
rabbit
  LEL: 1200 mg/kg/day
  LOAEL: > 2400 mg/kg/day
  NEL: < 1200 mg/kg/day
  NOAEL: ≥ 2400 mg/kg/day
Rat [2]; [17]
  LOAEL: > 540 mg/kg/day
  NOAEL: ≥ 540 mg/kg/day
Rat [2]; [18]
  LEL: 60 mg/kg/day
  NEL: < 60 mg/kg/day

## Nc1ccccc1Cl [2-Chloroaniline]
Mouse [3]; [19]
  LOAEL: 80 mg/kg/day
  NOAEL: 40 mg/kg/day
Mouse [3]; [20]
  LEL: 10 mg/kg/day
  NEL: < 10 mg/kg/day
Rat [4]; [21]
  LOAEL: 80 mg/kg/day
  NOAEL: 40 mg/kg/day
Rat [4]; [20]
  LEL: 10 mg/kg/day
  NEL: < 10 mg/kg/day

## COc1c(Cl)c(Cl)c(Cl)c(Cl)c1Cl [Pentachloroanisole]
Rat [5]; [22]
  LOAEL: > 180 mg/kg/day
  NOAEL: ≥ 180 mg/kg/day
Rat [5]; [23]
  LEL: 40 mg/kg/day
  NEL: < 40 mg/kg/day
Rat [6]; systemic / in life observation / body weight / body weight + systemic / pathology microscopic / adrenal gland / hyperplasia
  LOAEL: 40 mg/kg/day
Rat [6]; systemic / in life observation / body weight / body weight + systemic / pathology microscopic / adrenal gland / hyperplasia + systemic / …
  NOAEL: 20 mg/kg/day
Rat [6]; [24]
  LEL: 10 mg/kg/day
  NEL: < 10 mg/kg/day
Mouse [7]
  LEL: 20 mg/kg/day
  LOAEL: 20 mg/kg/day
  NEL: < 20 mg/kg/day
  NOAEL: < 20 mg/kg/day
Mouse [8]; [25]
  LOAEL: > 180 mg/kg/day
  NOAEL: ≥ 180 mg/kg/day
Mouse [8]; [26]
  LEL: 40 mg/kg/day
  NEL: < 40 mg/kg/day

## O=N[O-].[Na+] [Sodium nitrite]
Rat [9]
  LEL: 12.5 mg/kg/day
  LOAEL: > 25 mg/kg/day
  NEL: 6.25 mg/kg/day
  NOAEL: ≥ 25 mg/kg/day
Rat [10]; [20]
  LOAEL: 30 mg/kg/day
  NOAEL: < 30 mg/kg/day
Rat [10]; [27]
  LEL: 30 mg/kg/day
  NEL: < 30 mg/kg/day
Rat [11]; [28]
  LOAEL: > 500 mg/kg/day
  NEL: 125 mg/kg/day
  NOAEL: ≥ 500 mg/kg/day
Rat [11]; systemic / hematology / methemoglobin / methemoglobin + systemic / in life observation / mortality / mortality + systemic / pathology gross…
  LEL: 250 mg/kg/day
Rat [12]
  LEL: 125 mg/kg/day
  LOAEL: > 125 mg/kg/day
  NEL: 62.5 mg/kg/day
  NOAEL: ≥ 125 mg/kg/day
Rat [13]
  LEL: 100 mg/kg/day
  LOAEL: > 250 mg/kg/day
  NEL: < 100 mg/kg/day
  NOAEL: ≥ 250 mg/kg/day
Mouse [14]; [29]
  LOAEL: 165 mg/kg/day
Mouse [14]; systemic / in life observation / body weight / body weight + systemic / pathology microscopic / stomach / hyperplasia + systemic / pathology…
  NOAEL: 90 mg/kg/day
Mouse [14]; [30]
  LEL: 45 mg/kg/day
  NEL: < 45 mg/kg/day
Rat [15]; [29]
  LOAEL: 130 mg/kg/day
Rat [15]; systemic / in life observation / body weight / body weight + systemic / pathology microscopic / stomach / hyperplasia + systemic / in life …
  NOAEL: 70 mg/kg/day
Rat [15]; [30]
  LEL: 35 mg/kg/day
  NEL: < 35 mg/kg/day
Mouse [16]; [31]
  LEL: 445 mg/kg/day
  LOAEL: > 1230 mg/kg/day
  NEL: 240 mg/kg/day
  NOAEL: ≥ 1230 mg/kg/day
Mouse [16]; [32]
  LOAEL: 990 mg/kg/day
  NEL: 190 mg/kg/day
  NOAEL: 750 mg/kg/day
Mouse [16]; group: systemic, systemic / in life observation / water consumption / water consumption
  LEL: 345 mg/kg/day
